From ChEMBL document CHEMBL5518239, “Recent Advances on Small-Molecule Inhibitors of Lipocalin-like Proteins” (J Med Chem, 2024) come the findings set out here.

A short description of one data set: in vitro. The settings on record: human, liver microsomes.
The target in data set [1] is T1, Retinol-binding protein 1 (Homo sapiens, UniProt P09455).
T1 sequence (P09455 whole entry): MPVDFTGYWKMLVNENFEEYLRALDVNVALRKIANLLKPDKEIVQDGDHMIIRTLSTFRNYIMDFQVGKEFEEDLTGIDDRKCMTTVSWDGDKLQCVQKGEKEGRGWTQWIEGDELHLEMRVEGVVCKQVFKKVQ

The target of data set [2] is Retinol-binding protein 4 (Homo sapiens, UniProt P02753).
For data set [3], the target named is T2, Fatty acid-binding protein, heart (Homo sapiens, UniProt P05413).
The target of data set [4] is T3, Fatty acid-binding protein, brain (Homo sapiens, UniProt O15540).
Data set [5] concerns the target T4, Fatty acid-binding protein, adipocyte (Homo sapiens, UniProt P15090).
Data set [6] concerns the target T2, Fatty acid-binding protein, heart. This is another data set of the same source.
Data set [7] has as its target T1, Retinol-binding protein 1. This is another data set of the same source.
Data set [8] has as its target T3, Fatty acid-binding protein, brain. The source holds these as a separate data set.
In data set [9] the target is T4, Fatty acid-binding protein, adipocyte. The source holds these as a separate data set.

The share remaining is what is left of the initial amount, in per cent. High values mean greater stability, low ones a greater loss. Regarding `O=C(O)c1ccccc1NC(=O)N1CCC(c2ccccc2C(F)(F)F)CC1`, the amount remaining at 0.5 h in “in vitro” is under 30%.

For orientation: Ki means a measure of affinity in units of concentration, obtained from inhibition or displacement. Low readings indicate tighter binding, high ones weaker binding. Regarding `Cc1ccc(C2(c3noc(CN(C)Cc4cnn(C)c4)n3)CCCC2)cc1`, the affinity in [1], expressed as Ki, was 7100 nM. Usually Kd stands for the equilibrium constant for the complex coming apart. High values mean a looser complex, low ones a tighter complex. On to `CC1=C(/C=C/C(C)=C/C=C/C(C)=C/C(=O)Nc2ccc(N(C)C)cc2)C(C)(C)CCC1`, for which the affinity in data set [2], expressed as Kd, was 131 nM. The same measure, in the same setting: in the case of `CC1=C(/C=C/C(C)=C/C=C/C(C)=C/C(=O)N2CCOCC2)C(C)(C)CCC1` it was 131 nM; in that of `CC1=C(/C=C/C(C)=C/C=C/C(C)=C/C(=O)Nc2ccc(OCC(=O)O)cc2)C(C)(C)CCC1`, 131 nM. On to `CC1=C(/C=C/C(C)=C/C=C/C(C)=C/C(=O)NCC(O)CO)C(C)(C)CCC1` (stereo not given), for which the dissociation constant Kd in data set [2] worked out at 131 nM. `O=C(O)[C@H]1[C@@H](c2ccccc2)[C@H](C(=O)Oc2cccc3ccccc23)[C@@H]1c1ccccc1`: the Ki is 3600 nM in [3] and 400 nM in data set [4]. As a reminder, the IC50 is the midpoint of a concentration-inhibition curve. A high value points to weaker potency. Turning to `O=C(O)Cc1cn(-c2ccccc2-c2nc(-c3ccccc3)c(-c3ccccc3)s2)nn1`, the IC50 in data set [5] is 3980 nM. In other words, the single-digit micromolar range.

In [5], `O=C(O)Cc1cn(-c2ccccc2-c2nc(-c3ccc4ccccc4c3)c(-c3ccccc3)s2)nn1` showed a concentration for half-maximal inhibition (IC50) of 1260 nM.

In data set [5], `O=C(O)Cc1cn(-c2ccccc2-c2nc(-c3ccc(Cl)cc3)c(-c3ccccc3)s2)nn1` had a concentration for half-maximal inhibition (IC50) of 2510 nM. In turn, `O=C(O)[C@H]1[C@H](c2ccccc2)[C@H](C(=O)Oc2cccc(C3=CCOCC3)c2)[C@H]1c1ccccc1` registered a Ki in data set [4] of 830 nM.

`O=C(O)CCCOc1ccc(F)cc1-c1cc(-c2ccccc2C(F)(F)F)n(-c2ccccc2)n1` yielded an inhibition constant (Ki) in [6] of 24 nM. This lies in the double-digit nanomolar range. In [3], `COc1ccccc1[C@H]1[C@H](C(=O)O)[C@H](c2ccccc2OC)[C@H]1C(=O)Oc1ccccc1-c1ccccc1` returned an inhibition constant (Ki) of 1590 nM. `Cc1ccc(C2(c3noc(CN(C)Cc4cccs4)n3)CCCC2)cc1` had an inhibition constant (Ki) in data set [1] of 7100 nM. Consider `C=C(C)C1CCCC[C@H]1c1c(O)cc(O)cc1CCCCC` (stereo not given in full), for which, in data set [7], affinity was put at a Ki of 67 nM. For the compound `O=C(O)[C@H]1[C@@H](c2ccccc2)[C@H](C(=O)Nc2cccc3ccccc23)[C@@H]1c1ccccc1`, the Ki in [8] came to 1500 nM; in data set [3] it was 2600 nM. As to `O=C(Nc1cccc2ccccc12)[C@H]1[C@H](c2ccccc2)[C@H](C(=O)Nc2cccc3ccccc23)[C@H]1c1ccccc1`, the Ki in data set [8] is 3300 nM; in [3], over 10000 nM. `CC(c1cccs1)N(C)Cc1nc(C(c2ccccc2)c2ccccc2)no1` (stereo not given) came in with a Ki in [1] of 7100 nM. In other words, the single-digit micromolar range. Take `O=C(O)[C@H]1[C@@H](c2ccccc2)[C@H](C(=O)Oc2ccc3ccccc3c2)[C@@H]1c1ccccc1`: the inhibition constant Ki came out at 1300 nM in data set [8] and 3500 nM in data set [3]. As to `CC1=C(/C=C/C(C)=C/C=C/C(C)=C/C(=O)NCCO)C(C)(C)CCC1`, the Kd in data set [2] was determined as 131 nM. On to `C=C1CC[C@@H]2[C@](C)(CO)[C@H](O)CC[C@@]2(C)[C@@H]1C/C=C1/C(=O)OC[C@H]1O` [ANDROGRAPHOLIDE], for which the 50% inhibitory concentration (IC50) in data set [9] stood at 900 nM.
